Measurements from patent EP2311435A1, “Pharmaceutical composition comprising poorly soluble active ingredient and hyperbranched polymer” (LEK Pharmaceuticals d.d., priority 2009, dated 2011).
Converted amounts (≈) assume the structure as drawn.

Legend:
physchem [1] = conditions: 37 °C, pH 7, aqueous buffer, thermodynamic from solid
Protocol: Solubility as meant herein is measured using USP apparatus 2 (U.S. Pharmacopoeia 32-NF27) with agitation at 75 RPM in the dissolution medium of a phosphate buffer maintained at pH 6.8 and 37° C. Such low solubility makes preparing a useful pharmaceutical composition of acceptable size and efficacy especially difficult.
In a preferred embodiment, this is irrespective of the pharmacological effect it might have or ailment it is used to prevent or treat.
The pharmaceutical compositions, powders or granulates according to the invention comprise the hyperbranched polymer/API in specific weight ratios.

[2] = pH 6.8
physchem [3] = conditions: pH 6.8, aqueous buffer
[4] = In vitro dissolution of indapamide, USP Apparatus II (paddle), phosphate buffer pH 6.8; type: physicochemical; conditions: with polyesteramide hyperbranched polymers, figure 5
Protocol: Dissolution of indapamide was assessed at 37 °C by the USP Dissolution Tester, Apparatus II (Paddle method), using 900 ml of phosphate buffer (pH 6.8) as the dissolution medium and at a rotation rate of 75 rpm. The tested samples were added directly to buffer in an amount in order to achieve a final concentration of 15 µg / mL indapamide. Aliquots, each of 2 ml, from the dissolution medium were withdrawn at time intervals of 5, 15, 30, 60 minutes. The samples were withdrawn through syringe and filtered through Millipore filter in order to separate the undissolved sample and analyzed for indapamide using UV spectrofotometry at 287 nm.

[5] = In vitro dissolution of pimobendan, USP Apparatus II (paddle), phosphate buffer pH 6.8; type: physicochemical; conditions: admixed with Hybrane S1200, 2% and 5% of active ingredient
Protocol: The samples of pimobendan were prepared as in examples 6 to 13. Dissolution of pimobendan was assessed at 37 °C by the USP Dissolution Tester, Apparatus II (Paddle method) at a rotation rate of 75 rpm, using 900 ml of phosphate buffer (pH 6.8) as the dissolution medium. The tested samples were added directly to the buffer in the correct amount to achieve a final concentration of 5.5 µg / mL pimobendan (equals therapeutic dose dissolved in 900 mL). Aliquots, each of 2 ml, from the dissolution medium were withdrawn at time intervals of 5, 15, 30, 60 minutes. The samples were withdrawn through syringe and filtered through Millipore filter in order to separate the undissolved sample and analyzed for pimobendan using HPLC method.

[6] = In vitro dissolution of glimepiride, USP Apparatus II (paddle), phosphate buffer pH 6.8; type: physicochemical; conditions: mixed with hyperbranched polymer at the ratio of the invention, 37 °C, figures 3 and 4
Protocol: Approximately 50 % of the active ingredient (4 mg) is dissolved after 60 minutes of testing at following conditions: 37 °C in the USP Dissolution Tester, Apparatus II (Paddle method) using 900 ml of phosphate buffer (pH 6.8) as the dissolution medium and at a rotation rate of 75 rpm.
Dissolution of glimepiride was assessed at 37 °C by the USP Dissolution Tester, Apparatus II (Paddle method) at a rotation rate of 75 rpm using 900 ml of phosphate buffer (pH 6.8) as dissolution medium. The tested samples were added directly to the buffer in the correct amount to achieve a final concentration of 4,4 µg / mL glimepiride (equals therapeutic dose dissolved in 900 mL). Aliquots, each of 2 ml, from the dissolution medium were withdrawn at time intervals of 5, 15, 30, 60 minutes. The samples were withdrawn through syringe and filtered through Millipore filter and analyzed for glimepiride content using HPLC method.
The amount of dissolved glimepiride was estimated by reversed-phase HPLC (Waters Alliance) in a binary mode, with a photodiode array detector and a communication bus module. […]

[7] = Solubility in the presence of Hybrane S1200

`O=C1C(O)=C([C@H]2CC[C@H](c3ccc(Cl)cc3)CC2)C(=O)c2ccccc21` [atovaquone] showed a solubility (physchem [1]) of 3 µg/mL (≈ 8.18 µM), an Increase [2] of 100 fold and a solubility (physchem [3]; [7]) of 3 µg/mL. The solubility (physchem [3]; Solubility without polymer) was 0.03 µg/mL (≈ 0.0818 µM).
`CN1CC(=O)N2[C@H](c3ccc4c(c3)OCO4)c3[nH]c4ccccc4c3C[C@@H]2C1=O` [tadalafil] showed a solubility (physchem [1]) of 110 µg/mL (≈ 282 µM), an Increase [2] of 55 fold and a solubility (physchem [3]; [7]) of 110 µg/mL. It also gave a solubility (physchem [3]; Solubility without polymer) of 2 µg/mL (≈ 5.14 µM).
In the case of `Cc1ccc(S(=O)(=O)NC(=O)NN2CC3CCCC3C2)cc1` (stereo not shown) [gliclazide], the solubility (physchem [1]) is reported as 50 µg/mL (≈ 155 µM).
In the case of `CC1Cc2ccccc2N1NC(=O)c1ccc(Cl)c(S(N)(=O)=O)c1` (stereo not shown) [indapamide], the solubility (physchem [1]) is reported as 700 µg/mL (≈ 1910 µM), the “solubility of the indapamide” value [4] is reported as “remarkably enhance” and the Increase [2] is reported as 140 fold. It also gave a solubility (physchem [3]; [7]) of 700 µg/mL and a solubility (physchem [3]; Solubility without polymer) of 5 µg/mL (≈ 13.7 µM).
In the case of `COc1ccc(-c2nc3ccc(C4=NNC(=O)CC4C)cc3[nH]2)cc1` (stereo not shown) [pimobendan], the solubility (physchem [1]) is reported as 210 µg/mL (≈ 628 µM), the “solubility of the active ingredient” value [5] is reported as “significantly increases” and the Increase [2] is reported as 50 fold. It also gave a solubility (physchem [3]; [7]) of 210 µg/mL and a solubility (physchem [3]; Solubility without polymer) of 4 µg/mL (≈ 12 µM).
With `CCC1=C(C)CN(C(=O)NCCc2ccc(S(=O)(=O)NC(=O)N[C@H]3CC[C@H](C)CC3)cc2)C1=O` [glimepiride] the solubility (physchem [1]) was 1 µg/mL (≈ 2.04 µM), the solubility of glimepiride [6] was “significantly increased” and the Increase [2] was 10 fold. It also gave a solubility (physchem [3]; [7]) of 10 µg/mL and a solubility (physchem [3]; Solubility without polymer) of 1 µg/mL (≈ 2.04 µM).
`COc1ccc(Cl)cc1C(=O)NCCc1ccc(S(=O)(=O)NC(=O)NC2CCCCC2)cc1` [glibenclamide] gave a solubility (physchem [1]) of 60 µg/mL (≈ 121 µM).
